This assay deals with T1, recombinant guanylate cyclase reporter cell line (Rattus norvegicus, UniProt P19686+P20595).
T1 construct: expressed in transfected cells
T1 sequence (P20595 1-619): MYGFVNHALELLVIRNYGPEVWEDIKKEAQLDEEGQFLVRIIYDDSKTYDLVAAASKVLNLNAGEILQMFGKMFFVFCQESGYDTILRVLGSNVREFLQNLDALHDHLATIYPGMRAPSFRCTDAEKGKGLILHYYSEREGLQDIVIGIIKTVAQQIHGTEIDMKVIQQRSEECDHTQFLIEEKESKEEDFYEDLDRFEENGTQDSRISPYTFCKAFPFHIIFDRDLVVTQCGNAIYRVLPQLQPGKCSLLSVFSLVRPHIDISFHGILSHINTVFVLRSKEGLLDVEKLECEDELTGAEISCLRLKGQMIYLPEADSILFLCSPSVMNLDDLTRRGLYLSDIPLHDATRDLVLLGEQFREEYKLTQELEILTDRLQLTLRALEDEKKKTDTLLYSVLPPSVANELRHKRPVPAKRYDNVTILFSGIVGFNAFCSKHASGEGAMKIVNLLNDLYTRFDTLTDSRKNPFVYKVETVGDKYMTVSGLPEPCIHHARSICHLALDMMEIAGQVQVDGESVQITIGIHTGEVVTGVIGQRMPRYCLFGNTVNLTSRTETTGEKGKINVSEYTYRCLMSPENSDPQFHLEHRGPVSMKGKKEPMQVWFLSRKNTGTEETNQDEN
T1 sequence (P19686 1-690): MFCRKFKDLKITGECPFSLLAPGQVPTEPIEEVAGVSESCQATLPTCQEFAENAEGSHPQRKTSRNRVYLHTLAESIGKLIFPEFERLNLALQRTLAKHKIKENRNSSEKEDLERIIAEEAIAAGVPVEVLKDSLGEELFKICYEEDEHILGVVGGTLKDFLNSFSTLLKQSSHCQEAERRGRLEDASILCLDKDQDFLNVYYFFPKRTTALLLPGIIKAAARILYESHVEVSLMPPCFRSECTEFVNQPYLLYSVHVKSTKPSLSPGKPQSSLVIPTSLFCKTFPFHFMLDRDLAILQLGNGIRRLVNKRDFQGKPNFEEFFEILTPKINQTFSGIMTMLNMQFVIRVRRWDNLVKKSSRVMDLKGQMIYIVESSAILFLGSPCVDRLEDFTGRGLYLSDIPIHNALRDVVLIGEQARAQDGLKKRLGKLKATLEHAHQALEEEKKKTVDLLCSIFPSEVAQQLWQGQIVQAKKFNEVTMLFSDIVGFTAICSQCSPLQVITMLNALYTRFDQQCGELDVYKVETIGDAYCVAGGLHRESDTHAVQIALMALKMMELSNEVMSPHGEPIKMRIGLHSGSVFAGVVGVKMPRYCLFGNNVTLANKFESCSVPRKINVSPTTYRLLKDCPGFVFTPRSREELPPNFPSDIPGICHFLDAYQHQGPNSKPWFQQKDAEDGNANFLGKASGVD
The experiment in a line: B-2. Action on recombinant guanylate cyclase reporter cell line. It counts as cell-based. The following applies: MEC = minimal effective concentration; in some cases mean values from individual determinations. In outline: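 Each compound is applied to a cell line engineered with a reporter for recombinant guanylate cyclase. The minimal effective concentration is then noted, in part as a mean across separate determinations.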

Structures can show the parent of a compound that is named as a salt.

In the case of `Cc1cc(OCc2c(F)cccc2F)c2nc(C)c(C(=O)NC(C)(C)CN)n2c1` [Example 26, N-(1-amino-2-methylpropan-2-yl)-8-[(2,6-difluorobenzyl)oxy]-2,6-dimethylimidazo [1,2-a]-pyridine-3-carboxamide], the MEC amounted to 0.30 µM.
For the compound `Cc1nc2c(OCc3c(F)cccc3F)cccn2c1C(=O)NC1CC2CCCC(C1)N2` (centres unmarked) [Example 27, N-(9-azabicyclo[3.3.1]non-3-yl)-8-[(2,6-difluorobenzyl)oxy]-2-methylimidazo[1,2-a]-pyridine-3-carboxamide], the MEC was found to be 1.00 µM.
As to `Cc1nc2c(OCc3c(F)cccc3F)cc(Cl)cn2c1C(=O)NCCC1(N)CCCCC1` [Example 33, N-[2-(1-Aminocyclohexyl)ethyl]-6-chloro-8-[(2,6-difluorobenzyl)oxy]-2-methylimidazo[1,2-a]-pyridine-3-carboxamide], the MEC worked out at 0.30 µM.
For `CC[C@@H](N)CNC(=O)c1c(C)nc2c(OCc3c(F)cccc3F)cc(Cl)cn12` [Example 35, ent-N-[(2R)-2-aminobutyl]-6-chloro-8-[(2,6-difluorobenzyl)oxy]-2-methylimidazo[1,2-a]-pyridine-3-carboxamide], the MEC was determined as 1.00 µM.
For `Cc1nc2c(OCc3c(F)cccc3F)cc(Cl)cn2c1C(=O)NCCN` [Example 36, N-(2-aminoethyl)-6-chloro-8-[(2,6-difluorobenzyl)oxy]-2-methylimidazo[1,2-a]-pyridine-3-carboxamide], the MEC is 1.00 µM.
The value for `Cc1nc2c(OCc3c(F)cccc3F)cc(Cl)cn2c1C(=O)NCCCN` [Example 37, N-(3-aminopropyl)-6-chloro-8-[(2,6-difluoro-benzyl)oxy]-2-methylimidazo[1,2-a]pyridine-3-carboxamide] was 1.00 µM; that for `Cc1nc2c(OCc3c(F)cccc3F)cccn2c1C(=O)NCC1(N)CC1` [Example 38, N-[(1-aminocyclopropyl)methyl]-8-[(2,6-difluorobenzyl)oxy]-2-methylimidazo[1,2-a]-pyridine-3-carboxamide] was 0.40 µM; that for `Cc1nc2c(OCc3c(F)cccc3F)cc(Cl)cn2c1C(=O)NCC1(N)CC1` [Example 39, N-[(1-aminocyclopropyl)methyl]-6-chloro-8-[(2,6-difluorobenzyl)oxy]-2-methylimidazo[1,2-a]pyridine-3-carboxamide] was 0.10 µM.
In the case of `Cc1cc(OCc2c(F)cccc2F)c2nc(C)c(C(=O)NCC3(N)CC3)n2c1` [Example 40, N-[(1-aminocyclopropyl)methyl]-8-[(2,6-difluorobenzyl)oxy]-2,6-dimethylimidazo[1,2-a]-pyridine-3-carboxamide] it was 0.10 µM; in that of `Cc1nc2c(OCc3c(F)cccc3F)cccn2c1C(=O)NCC1(N)CCCC1` [Example 41, N-[(1-aminocyclopentyl)methyl]-8-[(2,6-difluorobenzyl)oxy]-2-methylimidazo[1,2-a]-pyridine-3-carboxamide], 0.30 µM.
The value for `Cc1nc2c(OCc3c(F)cccc3F)cc(Cl)cn2c1C(=O)NCC1(N)CCCC1` [Example 42, N-[(1-aminocyclopentyl)methyl]-6-chloro-8-[(2,6-difluorobenzyl)oxy]-2-methylimidazo[1,2-a]pyridine-3-carboxamide] was 1.00 µM; that for `Cc1nc2c(OCC3CCCCC3)cccn2c1C(=O)NC(CN)c1ccc(F)cc1F` (stereo not drawn) [Example 45, ent-N-[2-Amino-1-(2,4-difluorophenyl)ethyl]-8-(cyclohexylmethoxy)-2-methylimidazo[1,2-a]-pyridine-3-carboxamide] was 1.00 µM.
For `Cc1cc(OCc2c(F)cccc2F)c2nc(C)c(C(=O)NC(C)CN)n2c1` (stereo not drawn) [Example 48, ent-N-(1-Aminopropan-2-yl)-8-[(2,6-difluorobenzyl)oxy]-2,6-dimethylimidazo[1,2-a]pyridine-3-carboxamide], the MEC was 1.00 µM.
In the case of `Cc1cc(OCc2c(F)cccc2F)c2nc(C)c(C(=O)NC(CN)c3ccc(F)c(F)c3)n2c1` (stereo not drawn) [Example 51, ent-N-[2-Amino-1-(3,4-difluorophenyl)ethyl]-8-[(2,6-difluorobenzyl)oxy]-2,6-dimethylimidazo-[1,2-a]pyridine-3-carboxamide] it was 0.20 µM; in that of `Cc1nc2c(OCc3c(F)cccc3F)cc(F)cn2c1C(=O)NC(CN)c1ccc(F)c(F)c1` (stereo not drawn) [Example 53, ent-N-[2-Amino-(3,4-difluorophenyl)ethyl]-8-[(2,6-difluorobenzyl)oxy]-6-fluoro-2-methylimidazo[1,2-a]pyridine-3-carboxamide], 0.30 µM; in that of `NCC(NC(=O)c1c(C2CC2)nc2c(OCc3c(F)cccc3F)cccn12)c1ccc(F)c(F)c1` (stereo not drawn) [Example 54, ent-N-[2-amino-1-(3,4-difluorophenyl)ethyl]-2-cyclopropyl-8-[(2,6-difluorobenzyl)oxy]-imidazo[1,2-a]pyridine-3-carboxamide], 1.00 µM.
On to `NCC(NC(=O)c1cnc2c(OCc3c(F)cccc3F)cccn12)c1ccc(F)c(F)c1` (stereo not drawn) [Example 55, ent-N-[2-amino-1-(3,4-difluorophenyl)ethyl]-8-[(2,6-difluorobenzyl)oxy]imidazo[1,2-a]pyridine-3-carboxamide dihydrochloride], for which the MEC came out at 2.00 µM.
For the compound `Cc1nc2c(OCc3c(F)cccc3F)cccn2c1C(=O)N[C@H]1CCCNC1` [Example 60, 8-[(2,6-difluorobenzyl)oxy]-2-methyl-N-[(3S)-piperidin-3-yl]imidazo[1,2-a]pyridine-3-carboxamide dihydrochloride], the MEC was determined as 0.30 µM.
As to `Cc1nc2c(OCc3c(F)cccc3F)cccn2c1C(=O)N[C@H]1CCNC1` [Example 61, 8-[(2,6-Difluorobenzyl)oxy]-2-methyl-N-[(3S)-pyrrolidin-3-yl]imidazo[1,2-a]pyridine-3-carboxamide], the MEC came to 3.00 µM.
The value for `CCCC[C@H](CN1CCOCC1)NC(=O)c1c(C)nc2c(OCc3c(F)cccc3F)cccn12` [Example 64, ent-8-[(2,6-Difluorobenzyl)oxy]-2-methyl-N-[(2R)-1-(morpholin-4-yl)hexan-2-yl]imidazo[1,2-a]-pyridine-3-carboxamide] was 0.30 µM; that for `CCCC[C@H](CN1CCCC1)NC(=O)c1c(C)nc2c(OCc3c(F)cccc3F)cccn12` [Example 66, ent-8-[(2,6-difluorobenzyl)oxy]-2-methyl-N-[(2R)-1-(pyrrolidin-1-yl)hexan-2-yl]imidazo[1,2-a]-pyridine-3-carboxamide] was 1.00 µM; that for `CCCC[C@H](CN1CCN(C)CC1)NC(=O)c1c(C)nc2c(OCc3c(F)cccc3F)cccn12` [Example 67, ent-8-[(2,6-difluorobenzyl)oxy]-2-methyl-N-[(2R)-1-(4-methylpiperazin-1-yl)hexan-2-yl]imidazo[1,2-a]pyridine-3-carboxamide] was 0.30 µM.
As to `CCCC[C@H](CN(C)C)NC(=O)c1c(C)nc2c(OCc3c(F)cccc3F)cccn12` [Example 68, ent-8-[(2,6-difluorobenzyl)oxy]-N-[(2R)-1-(dimethylamino)hexan-2-yl]-2-methylimidazo[1,2-a]pyridine-3-carboxamide], the MEC was determined as 0.30 µM.
The value for `CCCC[C@H](CN(CC)CC)NC(=O)c1c(C)nc2c(OCc3c(F)cccc3F)cccn12` [Example 69, ent-N-[(2R)-1-(diethylamino)hexan-2-yl]-8-[(2,6-difluorobenzyl)oxy]-2-methylimidazo[1,2-a]-pyridine-3-carboxamide] was 1.00 µM.
`CCCC[C@H](CNCCOC)NC(=O)c1c(C)nc2c(OCc3c(F)cccc3F)cccn12` [Example 70, ent-8-[(2,6-difluorobenzyl)oxy]-N-{(2R)-1-[(2-methoxyethyl)amino]hexan-2-yl}-2-methylimidazo[1,2-a]pyridine-3-carboxamide]: the MEC turned out to be 1.00 µM.
`CCN1C2CCCC1CC(NC(=O)c1c(C)nc3c(OCc4c(F)cccc4F)cccn13)C2` (centres unmarked) [Example 71, 8-[(2,6-Difluorobenzyl)oxy]-N-(9-ethyl-9-azabicyclo[3.3.1]non-3-yl)-2-methylimidazo[1,2-a]-pyridine-3-carboxamide]: the MEC amounted to 0.30 µM.

Source of the values: patent US9624214B2, “Amino-substituted imidazo[1,2-a]pyridinecarboxamides and their use” (BAYER PHARMA AKTIENGESELLSCHAFT, priority 2012, dated 2017).
